From BindingDB's records for patent US11584735 (Kalvista Pharmaceuticals, 2023)
pIC50: −log10 of the molar value.

Molecular target: Serine protease 1 (Homo sapiens, UniProt P07477)
Experiment: Enzymatic Activity Assay
Protocol: Human serine protease enzymes plasmin, thrombin and trypsin were assayed for enzymatic activity using an appropriate fluorogenic substrate. Protease activity was measured by monitoring the accumulation of liberated fluorescence from the substrate over 5 minutes. The linear rate of fluorescence increase per minute was expressed as percentage (%) activity. The Km for the cleavage of each substrate was determined by standard transformation of the Michaelis-Menten equation.

Serine protease 1, sequence (P07477 whole entry): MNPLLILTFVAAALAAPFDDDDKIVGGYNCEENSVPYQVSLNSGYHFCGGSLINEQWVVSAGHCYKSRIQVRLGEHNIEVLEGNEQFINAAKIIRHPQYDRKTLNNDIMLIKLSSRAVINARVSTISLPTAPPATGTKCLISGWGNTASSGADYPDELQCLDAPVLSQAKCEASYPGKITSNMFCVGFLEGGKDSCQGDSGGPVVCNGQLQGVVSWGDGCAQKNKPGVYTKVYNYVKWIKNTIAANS

pIC50: < 4.40
SMILES: COCc1nn(Cc2ccc(Cn3cc(F)ccc3=O)cc2)cc1C(=O)NCc1nccc(OC)c1F [US11584735, Compound of Formula A]
